US7524844B2, “Dipeptidyl peptidase IV inhibitors, process for their preparation and compositions containing them” (Glenmark Pharmaceuticals S.A., priority 2004, dated 2009)

molecular target: T1, human recombinant Dipeptidyl peptidase IV enzyme (DPP-IV) (Homo sapiens, UniProt P27487); test: in-vitro DPP-IV assay (cleavage of AMC from Gly-Pro-AMC); format: biochemical; conditions: at 300 nM; printed in the IC50 (nM) column; read-out: DPP-IV inhibition using human recombinant DPP-IV enzyme, percent inhibition
T1 construct: purchased R&D Systems Inc. of Minneapolis, Minn
Experimental: DPP-IV activity was determined by the cleavage rate of 7-amino-4-methyl coumarin (AMC) from the synthetic substrate Glycyl-Prolyl-AMC. In brief, the assay was conducted by adding 10 ng of human recombinant Dipeptidyl peptidase IV enzyme (DPP-IV, available commercially from R&D Systems Inc. of Minneapolis, Minn.) in 50 μl of the assay buffer (25 mM Tris, pH 7.4, 140 mM NaCl, 10 mM KCl, 1% BSA) to 96 well black flat bottom microtiter plates. The reaction was initiated by adding 50 μl of 100 μM substrate Gly-Pro-AMC. The incubation was carried out in the kinetic mode at 30° C. for 30 minutes. Fluorescence was measured using Fluorostar with an excitation filter of 380 nm and emission filter of 460 nm. Test compounds and solvent controls were added as 1 μl additions. A standard curve of free amino methyl coumarin (AMC) was generated using 0-100 μM AMC in the assay buffer. The curve generated, which was linear was used for the interpolation of catalytic activity.
Test compounds dissolved in DMSO at 5-6 concentrations were tested in duplicate along with the solvent control and blank samples. Percent inhibition was calculated at each concentration with respect to the solvent control sample (no test compound added). […]

T1 sequence (P27487 whole entry): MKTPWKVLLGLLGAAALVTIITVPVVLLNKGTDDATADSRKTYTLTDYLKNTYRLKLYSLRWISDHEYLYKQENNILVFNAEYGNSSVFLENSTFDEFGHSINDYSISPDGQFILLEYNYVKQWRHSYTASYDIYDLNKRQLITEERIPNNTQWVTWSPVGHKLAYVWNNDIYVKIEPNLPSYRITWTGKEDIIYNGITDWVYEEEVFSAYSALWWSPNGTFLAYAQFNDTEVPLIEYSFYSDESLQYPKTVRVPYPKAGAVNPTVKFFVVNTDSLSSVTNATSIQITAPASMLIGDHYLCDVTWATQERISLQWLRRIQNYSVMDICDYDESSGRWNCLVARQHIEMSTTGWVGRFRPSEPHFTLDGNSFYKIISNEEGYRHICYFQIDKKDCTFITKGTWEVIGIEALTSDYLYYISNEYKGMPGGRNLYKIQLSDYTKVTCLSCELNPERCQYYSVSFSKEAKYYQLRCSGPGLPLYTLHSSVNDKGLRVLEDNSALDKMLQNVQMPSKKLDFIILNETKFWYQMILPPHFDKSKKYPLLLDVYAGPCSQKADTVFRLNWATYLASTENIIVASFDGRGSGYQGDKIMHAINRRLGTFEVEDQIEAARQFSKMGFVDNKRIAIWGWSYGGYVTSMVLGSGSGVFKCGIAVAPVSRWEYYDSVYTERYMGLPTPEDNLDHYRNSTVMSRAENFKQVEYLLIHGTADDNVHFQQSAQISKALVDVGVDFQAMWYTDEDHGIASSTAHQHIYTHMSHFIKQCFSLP

| Compound | inhibition at 0.3 µM [%] |
| --- | --- |
| N#C[C@@H]1CCCN1C(=O)CNC1CCC(C(=O)Nc2cc(F)c(F)cc2F)C1 (mixture of isomers) [Example 74, 1-((1SR,3RS)-3-{2-[(2S)-2-Cyanopyrrolidine-1-yl]-2-oxoethylamino}cyclopentyl-carboxamido)-2,4,5-trifluorobenzene] | 2 |
| O=C(CN[C@H]1CCC(Cn2cncn2)C1)N1CC[C@H](F)C1 (stereo in doubt) [Example-55, 1-[(3S)-3-Fluoropyrrolidin-1-yl]-2-[(1S,3S)-3-(1H-1,2,4-Triazol-1-ylmethyl)cyclo-pentylamino]-1-ethanone] | 0 |

same assay, conditions: human recombinant DPP-IV, Gly-Pro-AMC substrate, 30° C., 30 minutes; read-out: DPP-IV inhibition using human recombinant DPP-IV enzyme, IC50

| Compound | IC50 [nM] |
| --- | --- |
| N#CC1CCC(NCC(=O)N2CCC[C@H]2C#N)C1 (mixture of isomers) [Example 2, (2S)-1-{2-[(3SR,1RS)-3-Cyanocyclopentylamino]acetyl}-2-pyrrolidinecarbonitrile] | 286 |
| N#C[C@@H]1CCCN1C(=O)CNC1CCC(C(N)=O)C1 (mixture of isomers) [Example-1, (1SR,3RS)-3-{2-[(2S)-2-Cyanopyrrolidin-1-yl]-2-oxoethylamino}cyclopentane-1-carboxamide] | 163 |
| N#C[C@@H]1CCCN1C(=O)CNC1CCC(CN2CCC[C@H]2C(N)=O)C1 (mixture of isomers) [Example-10, (2S)-1-((1SR,3RS)-3-{2-[(2S)-2-Cyanopyrrolidin-1-yl]-2-oxoethylamino}cyclopentyl-methyl)pyrrolidine-2-carboxamide] | 64.4 |
| N#C[C@@H]1CCCN1C(=O)CNC1CCC(C(=O)NOCc2ccccc2)C1 (mixture of isomers) [Example-12, N1-Benzyloxy-(1SR,3RS)-3-{2-[(2S)-2-cyanopyrrolidin-1-yl]-2-oxoethylamino}-cyclopentane-1-carboxamide] | 145 |
| CN1CCN(CC2CCC(NCC(=O)N3CCC[C@H]3C#N)C2)CC1 (mixture of isomers) [Example-20, (2S)-1-{2-[(3SR,1RS)-3-(4-Methylpiperazinomethyl)cyclopentylamino]acetyl}-pyrrolidine-2-carbonitrile] | 123 |
| N#CC1CCN(C[C@H]2CC[C@@H](NCC(=O)N3CCC[C@H]3C#N)C2)CC1 (mixture of isomers) [Example-21, (2S)-1-{2-[(3SR,1RS)-3-(4-Cyanopiperidinylmethyl)cyclopentylamino]acetyl}-pyrrolidine-2-carbonitrile] | 33 |
| N#C[C@@H]1CCCN1C(=O)CNC1CCC(C(=O)NC23CC4CC(CC(C4)C2)C3)C1 (mixture of isomers) [Example 72, 1-((1SR,3RS)-3-{2-[(2S)-2-Cyanopyrrolidin-1-yl]-2-oxoethylamino}cyclopentyl-carboxamido)adamantine] | 209 |
| N#C[C@@H]1CCCN1C(=O)CNC1CCC(C(=O)Nc2cc(F)ccc2F)C1 (mixture of isomers) [Example 73, 1-((1SR,3RS)-3-{2-[(2S)-2-Cyanopyrrolidin-1-yl)-2-oxoethylamino}cyclopentyl-carboxamido)-2,5-difluorobenzene] | 49.2 |
| N#C[C@@H]1CCCN1C(=O)CNC1CCC(C(=O)Nc2ccccc2-c2ccccc2)C1 (mixture of isomers) [Example 75, 1-((1SR,3RS)-3-{2-[(2S)-2-Cyanopyrrolidin-1-yl)-2-oxoethylamino}cyclopentyl-carboxamido)-2-phenylbenzene] | 252 |
| N#C[C@@H]1CCCN1C(=O)CNC1CCC(C(=O)N2CCC[C@H]2C#N)C1 (mixture of isomers) [Example-11] | 103 |
| N#C[C@@H]1CCCN1C(=O)CNC1CCC(CN2CCSC2)C1 (mixture of isomers) [Example-17] | 288 |

Now from value to molecule:

| IC50 [nM] | Compound |
| --- | --- |
| 26.8 | N#CCC1CCC(NCC(=O)N2CCC[C@H]2C#N)C1 (mixture of isomers) [Example-3, (2S)-1-{2-[(3SR,1RS)-3-Cyanomethylcyclopentylamino]acetyl}-2-pyrrolidine carbonitrile] |
| 3.44 | N#Cc1cccn1CC1CCC(NCC(=O)N2C[C@@H](F)C[C@H]2C#N)C1 (mixture of isomers) [Example-27, (2S,4S)-1-{2-[(3SR,1RS)-3-(2-Cyano-1H-pyrrol-1-ylmethyl)cyclopentylamino)-acetyl}-4-fluoropyrrolidine-2-carbonitrile] |
| 10.1 | CCCCc1nc(Cl)c(CO)n1CC1CCC(NCC(=O)N2CCC[C@H]2C#N)C1 (mixture of isomers) [Example-31, (2S)-1-{2-[(3SR,1RS)-3-(2-Butyl-4-chloro-5-hydroxymethyl-1H-1-imidazolylmethyl)-cyclopentylamino]acetyl}pyrrolidine-2-carbonitrile] |
| 3.46 | CCCCc1nc(Cl)c(C#N)n1CC1CCC(NCC(=O)N2CCC[C@H]2C#N)C1 (mixture of isomers) [Example-32, 2-n-Butyl-4-chloro-1-((1SR,3RS)-3-{2-[(2S)-2-cyanopyrrolidin-1-yl]-2-oxoethyl-amino}cyclopentylmethyl)-1H-5-imidazolecarbonitrile] |
| 5.05 | N#Cc1ncn(CC2CCC(NCC(=O)N3CCC[C@H]3C#N)C2)c1C#N (mixture of isomers) [Example-33, 1-((1SR,3RS)-3-{2-[(2S)-2-Cyanopyrrolidin-1-yl]-2-oxoethylamino}cyclopentyl-methyl)-1H-4,5-imidazoledicarbonitrile] |
| 6 | N#C[C@@H]1CCCN1C(=O)CNC1CCC(Cn2cncn2)C1 (mixture of isomers) [Example-36, (2S)-1-{2-[(3SR,1RS)-3-(1H-1,2,4-Triazol-1-ylmethyl)cyclopentylamino]acetyl}-pyrrolidine-2-carbonitrile] |
| 4.44 | N#C[C@@H]1C[C@H](F)CN1C(=O)CNC1CCC(Cn2cncn2)C1 (mixture of isomers) [Example-41, (2S,4S)-1-{2-[(3SR,1RS)-3-(1H-1,2,4-Triazol-1-ylmethyl)cyclopentylamino]acetyl}-4-fluoropyrrolidine-2-carbonitrile] |
| 25.4 | N#C[C@@H]1CCCN1C(=O)CNC1CCC(CN2CCN(Cc3ccccc3)CC2)C1 (mixture of isomers) [Example-22, (2S)-1-{2-1[(3SR,1RS)-3-(4-Benzylpiperazinomethyl)cyclopentylamino]acetyl}-pyrrolidin-2-carbonitrile] |
| 6.88 | N#C[C@@H]1CCCN1C(=O)CNC1CCC(Cn2cnc([N+](=O)[O-])c2)C1 (mixture of isomers) [Example-30, (2S)-1-{2-[(3SR,1RS)-3-(1H-4-Nitro-1-imidazolylmethyl)cyclopentylamino]acetyl}-pyrrolidine-2-carbonitrile] |
| 22.2 | N#CC[C@H]1CC[C@@H](NCC(=O)N2CCC[C@H]2C#N)C1 [Example-4, (2S)-1-{2-[(3S,1R)-3-Cyanomethylcyclopentylamino]acetyl}-2-pyrrolidinecarbo-nitrile] |
| 21.8 | N#CC[C@@H]1CC[C@H](NCC(=O)N2CCC[C@H]2C#N)C1 [Example-6, (2S)-1-{2-[(3R,1S)-3-Cyanomethylcyclopentylamino]acetyl}-2-pyrrolidinecarbo nitrile] |
| 4.29 | N#CC[C@H]1CC[C@@H](NCC(=O)N2C[C@@H](F)C[C@H]2C#N)C1 [Example-7, (2S,4S)-1-{2-[(3S,1R)-3-Cyanomethylcyclopentylamino]acetyl}-4-fluoro-2-pyrrol-idinecarbonitrile] |
| 4.36 | N#CC[C@@H]1CC[C@H](NCC(=O)N2C[C@@H](F)C[C@H]2C#N)C1 [Example-8, (2S,4S)-1-{2-1[(3R,1S)-3-Cyanomethylcyclopentylamino]acetyl}-4-fluoro-2-pyrro-idinecarbonitrile] |
